Results published in ChEMBL document CHEMBL1201862, “PubChem BioAssay data set” (2004).
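Five compound concentrations were applied to cells in 96-well plates for 48 hours; endpoints were derived by simple linear interpolation of the resulting dose-response curve. GI50 is the concentration that inhibits growth by half.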 Calls of active or inactive are those of the source. Rule as the data show it: active = GI50 up to about 1.1 µM and inactive = higher. *1 amine or outer side, *2 acyl side, *3 side chain or, on linkers, in order; H or OH if unused. Where a SMILES comes first, the peptide text is derived from it. [ ]: non-standard residue; d: D form. The star is where a group is joined. ξ: configuration not given here. X43 = CCC(=O)CC(O)CC(C)CC(N[*:1])C(=O)[*:2]; ξLeu(3ξ-OH) = CC(C)C(O)C(N)C(=O)O; ξPro(4ξ-Me) = CC1CNC(C(=O)O)C1; X42 = CCC(C)/C=C/C(=O)*; Aib = CC(C)(N)C(=O)O; X44 = CC(CN(C)C)N*; βAla = NCCC(=O)O

Columns and labels:
Test in all cases: NCI anticancer screen, dose series, 48 h
HL-60 = tested on: HL-60
OVCAR-4 = tested on: OVCAR-4
MDA-MB-231 = tested on: MDA-MB-231
PC-3 = tested on: PC-3
U-251 = tested on: U-251
HOP-92 = tested on: HOP-92
SK-MEL-28 = tested on: SK-MEL-28
HCC 2998 = tested on: HCC 2998
ACHN = tested on: ACHN
SK-MEL-2 = tested on: SK-MEL-2
RPMI-8226 = tested on: RPMI-8226
SK-MEL-5 = tested on: SK-MEL-5
Hs-578T = tested on: Hs-578T
HOP-62 = tested on: HOP-62
NCI-H522 = tested on: NCI-H522
A549 = tested on: A549
BT-549 = tested on: BT-549
NCI-H226 = tested on: NCI-H226
SW-620 = tested on: SW-620
OVCAR-3 = tested on: OVCAR-3

Compound	GI50 (HL-60)	GI50 (OVCAR-4)	GI50 (MDA-MB-231)	GI50 (PC-3)	GI50 (U-251)	GI50 (HOP-92)	GI50 (SK-MEL-28)	GI50 (HCC 2998)	GI50 (ACHN)	GI50 (SK-MEL-2)	GI50 (RPMI-8226)	GI50 (SK-MEL-5)	GI50 (Hs-578T)	GI50 (HOP-62)	GI50 (NCI-H522)	GI50 (A549)	GI50 (BT-549)	GI50 (NCI-H226)	GI50 (SW-620)	GI50 (OVCAR-3)
C[C@H](NC(=O)C(Cc1ccccc1)(Cc1ccc(O)cn1)NC(=O)c1ccccc1)c1ccccc1 (stereo not given in full)	25.1 µM (inactive)	15.1 µM (inactive)	15.6 µM (inactive)	14.2 µM (inactive)	15.3 µM (inactive)	21.3 µM (inactive)	18.5 µM (inactive)	16.5 µM (inactive)	18.9 µM (inactive)	14.2 µM (inactive)	21.1 µM (inactive)	19.4 µM (inactive)	16.7 µM (inactive)	17.9 µM (inactive)	15.5 µM (inactive)	14.3 µM (inactive)	18.1 µM (inactive)	19.7 µM (inactive)	22.5 µM (inactive)	14.7 µM (inactive)
COc1ccc(O)c(/C=N/NC(=S)N2CCCCC2)c1	0.131 µM (active)	4.59 µM (inactive)	9.23 µM (inactive)	5 µM (inactive)	1.85 µM (inactive)	5.18 µM (inactive)	3.17 µM (inactive)	1.87 µM (inactive)	0.906 µM (active)	25.1 µM (inactive)	1.05 µM (active)	2.02 µM (inactive)	31 µM (inactive)	1.35 µM (inactive)	0.948 µM (active)	1.81 µM (inactive)	3.77 µM (inactive)	1.07 µM (active)	2.88 µM (inactive)	0.319 µM (active)
CC12NC(=C(C#N)C#N)C(C#N)=C3NC(N)=C(C#N)C(=C31)Oc1ccccc12 (stereo not given)	5.74 µM (inactive)	62.1 µM (inactive)	> 30.1 µM (inactive)	30.1 µM (inactive)	18.1 µM (inactive)	> 21.5 µM (inactive)	> 66.7 µM (inactive)	27.4 µM (inactive)	> 25 µM (inactive)	6.7 µM (inactive)	> 32.7 µM (inactive)	5.05 µM (inactive)	6.46 µM (inactive)	5.04 µM (inactive)	56.2 µM (inactive)	17 µM (inactive)	> 24.8 µM (inactive)	43.6 µM (inactive)	> 26.6 µM (inactive)	4.2 µM (inactive)
O/N=C1\Nc2ccccc2OCc2cc(Br)c(Br)cc2COc2ccccc2N\C1=N/O	5.18 µM (inactive)	10.7 µM (inactive)	14.8 µM (inactive)	13.4 µM (inactive)	13.8 µM (inactive)	12.6 µM (inactive)	22.6 µM (inactive)	7.71 µM (inactive)	5.97 µM (inactive)	19.5 µM (inactive)	10.8 µM (inactive)	12.9 µM (inactive)	31.7 µM (inactive)	15.5 µM (inactive)	6.43 µM (inactive)	17.6 µM (inactive)	15.1 µM (inactive)	21.5 µM (inactive)	11.8 µM (inactive)	7.21 µM (inactive)
COC(=O)C1=C(OC(=O)/C=C/c2ccc(Cl)cc2)C(C(=O)OC)[C@]2(O)[C@@H](C(=O)OC)[C@H]1C[C@@H](c1ccccc1)[C@@H]2C(=O)OC (stereo not given in full)	3.81 µM (inactive)	5.19 µM (inactive)	12.4 µM (inactive)	5.65 µM (inactive)	4.74 µM (inactive)	2.58 µM (inactive)	17.3 µM (inactive)	7.83 µM (inactive)	4.74 µM (inactive)	6.27 µM (inactive)	3.92 µM (inactive)	4.55 µM (inactive)	7.71 µM (inactive)	> 57.4 µM (inactive)	2.34 µM (inactive)	3.7 µM (inactive)	6.55 µM (inactive)	4.12 µM (inactive)	3.97 µM (inactive)	7.5 µM (inactive)
CCOP(=O)(OCC)C(Cc1cn(S(=O)(=O)c2ccc(C)cc2)cn1)C(=O)O (stereo not given)	> 100 µM (inactive)	> 100 µM (inactive)	> 100 µM (inactive)	> 100 µM (inactive)	> 100 µM (inactive)	> 100 µM (inactive)	> 100 µM (inactive)	> 100 µM (inactive)	> 100 µM (inactive)	> 100 µM (inactive)	> 100 µM (inactive)	> 100 µM (inactive)	> 100 µM (inactive)	> 100 µM (inactive)	> 100 µM (inactive)	> 100 µM (inactive)	> 100 µM (inactive)	> 100 µM (inactive)	> 100 µM (inactive)	> 100 µM (inactive)
C/C(=N\NC(=S)N1CC2CCC(CC2)C1)c1cccc(C)n1	0.01 µM (active)	0.352 µM (active)	0.224 µM (active)	0.01 µM (active)	0.551 µM (active)	2.2 µM (inactive)	2.94 µM (inactive)	2.16 µM (inactive)	0.59 µM (active)	4.7 µM (inactive)	0.31 µM (active)	1.96 µM (inactive)	4.11 µM (inactive)	1.06 µM (active)	0.00432 µM (active)	0.9 µM (active)	1.32 µM (inactive)	0.841 µM (active)	0.148 µM (active)	0.01 µM (active)
C=C1c2nc3ccccc3n2C=C(c2ccc(OC)cc2)N1c1ccc(OCCN2CCOCC2)cc1	4.31 µM (inactive)	11.1 µM (inactive)	> 86.1 µM (inactive)	9.51 µM (inactive)	> 93.3 µM (inactive)	> 40.9 µM (inactive)	42.2 µM (inactive)	86.3 µM (inactive)	46.9 µM (inactive)	18.5 µM (inactive)	1.91 µM (inactive)	8.45 µM (inactive)	4.7 µM (inactive)	> 100 µM (inactive)	1.43 µM (inactive)	28.4 µM (inactive)	49.2 µM (inactive)	> 100 µM (inactive)	44.3 µM (inactive)	> 100 µM (inactive)
CCC(=O)CC(O)CC(C)CC(NC(=O)C1CC(C)CN1C(=O)/C=C/C(C)CC)C(=O)NC(C(=O)NC(C)(C)C(=O)NC(CC(C)C)C(=O)NC(CC(C)C)C(=O)NC(C)(C)C(=O)NC(C)(C)C(=O)NCCC(=O)NC(C)CN(C)C)C(O)C(C)C (stereo not given) (X42-[ξPro(4ξ-Me)][X43][ξLeu(3ξ-OH)][Aib]LL[Aib][Aib][βAla]-X44; configuration not given here)	0.00951 µM (active)	0.0361 µM (active)	0.133 µM (active)	0.00632 µM (active)	< 0.005 µM (active)	0.0887 µM (active)	0.362 µM (active)	0.153 µM (active)	0.611 µM (active)	0.12 µM (active)	0.0218 µM (active)	< 0.005 µM (active)	0.0132 µM (active)	0.151 µM (active)	< 0.005 µM (active)	< 0.005 µM (active)	0.29 µM (active)	< 0.005 µM (active)	0.143 µM (active)	0.0074 µM (active)
CN(CC(N)=O)C(=O)N(CCCl)N=O [SARCNU]	> 100 µM (inactive)	> 100 µM (inactive)	> 100 µM (inactive)	> 100 µM (inactive)	> 100 µM (inactive)	> 77.6 µM (inactive)	> 100 µM (inactive)	> 100 µM (inactive)	> 100 µM (inactive)	> 100 µM (inactive)	> 100 µM (inactive)	> 100 µM (inactive)	> 100 µM (inactive)	> 100 µM (inactive)	> 100 µM (inactive)	> 100 µM (inactive)	> 100 µM (inactive)	67.9 µM (inactive)	> 100 µM (inactive)	> 100 µM (inactive)
